Results on 44 compounds are retold here after PMC11963559, “Identification of novel thiazole derivatives as flaviviral protease inhibitors effective against Dengue (DENV2) and Japanese encephalitis viruses” (Antimicrobial Agents and Chemotherapy, 2025).

Each structure is given as a SMILES string. Some results are limits rather than exact numbers.

T1 sequence (P14340 1476-1653): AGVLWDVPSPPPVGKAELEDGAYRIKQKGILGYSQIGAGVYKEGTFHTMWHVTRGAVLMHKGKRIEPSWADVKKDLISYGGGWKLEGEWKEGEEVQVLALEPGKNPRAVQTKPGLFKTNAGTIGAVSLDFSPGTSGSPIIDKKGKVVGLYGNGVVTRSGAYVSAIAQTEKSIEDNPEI
T1 sequence (P14340 1398-1437): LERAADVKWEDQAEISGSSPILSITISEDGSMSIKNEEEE

One assay concerns the target T1, DENV2 NS2B–NS3 protease (Dengue virus type 2, UniProt P14340).
T1 construct: Activity of recombinant dengue 2 virus NS3 protease in the presence of a truncated NS2B co-factor; The N-terminal domain of NS3 contains a highly conserved protease-active core; made in house; host or cells: Escherichia coli BL21(DE3)
Kind of assay: In vitro DENV2 NS2B/NS3pro inhibition assay using a FRET substrate. The settings on record: 5 µM substrate, 10 nM NS2b-NS3pro, compounds at 1, 10 and 100 µM, 1 h at RT; compounds 3s-3an. Type of assay: biochemical. The protocol: To assess the anti-DENV NS2B–NS3 activity of the compounds, we expressed the DENV2 NS2B–NS3 protease in BL21DE3 cells and subsequently purified it using Ni-NTA affinity chromatography, as outlined in Materials and Methods ([39], [40]). The protease activity assay was performed using different concentrations (1, 2.5, 5, 10, 25, 50, 75, and 100 µM) of a fluorogenic substrate (Abs-Nle-Lys-Arg-Arg-Ser-3-(NO2)Tyr) at various time points (5, 15, 30, 45, and 60 min), as described previously ([39], [41]). […] Therefore, all subsequent assays were conducted with a 1 h incubation time.
The selected compounds were analyzed using in vitro protease assays performed in black 96-well plates. […] All assays were performed in triplicate. The release of free AMC was measured using a Varioskan LUX multimode microplate reader (Thermo Fisher Scientific) at excitation and emission wavelengths of 380 and 460 nm, respectively. Control fluorescence values obtained in the absence of inhibitors were considered 100%, and those obtained in the presence of inhibitors were calculated as the percentage of inhibition of the control using Microsoft Excel and plotted using Origin Pro 2023b. The background AMC in the absence of protease was subtracted before data analysis. Further, protease assay was done using different concentration of the compounds (1, 10, and 100 µM) to evaluate the IC50 for the in vitro assay. IC50 curves were fitted and determined by fitting the nonlinear equation in Origin2023b software. A similar approach was used to analyze the enzymatic kinetics of protease inhibition. The reaction progress was monitored by the release of free aminomethylcoumarin (AMC), as previously described. The substrate was incubated with or without the inhibitor in the aforementioned reaction buffer in the presence of varying concentrations of the substrate. The reactions were initiated by the addition of the NS2B–NS3 protease. Protease activity was monitored for 1 h based on the initial rate of increase in fluorescence intensity at 460 nm, with an excitation wavelength of 380 nm. The results were analyzed using Origin Pro 2023b and the Michaelis–Menten equation to obtain the apparent Michaelis–Menten constants and maximal velocities. All assays were performed in triplicate. For each tested compound, two different concentrations of the inhibitor (0, 10, and 25 µM) were used at various concentrations (0–250 μM) of the substrate. The mechanism of inhibition was determined by observing the deviations in the apparent Km and Vmax values.
`COc1ccc(OC)c(/C(C)=N/Nc2nc(-c3cccc([N+](=O)[O-])c3)cs2)c1` [3aa]: the “IC50 (µM), DENV protease inhibitory activity” value was “completely lost its activity”.

The same assay, now with this note: IC50 (µM), DENV2 NS2B–NS3 protease inhibitory activity, 5 µM substrate, 10 nM NS2b-NS3pro, compounds at 1, 10 and 100 µM, 1 h at RT; compounds 3a-3r.
In the case of `Cc1ccc(/C=N/Nc2nc(-c3cccc([N+](=O)[O-])c3)cs2)cc1` [3a], the IC50 is over 100 µM.

In the case of `Cc1cc(C)cc(/C=N/Nc2nc(-c3cccc([N+](=O)[O-])c3)cs2)c1` [3b], the IC50 is over 100 µM.

Take `COc1ccccc1/C=N/Nc1nc(-c2cccc([N+](=O)[O-])c2)cs1` [3c]: the midpoint of inhibition, the IC50, lay at 229 µM.

The compound `COc1ccc(OC)c(/C=N/Nc2nc(-c3cccc([N+](=O)[O-])c3)cs2)c1` [3d] returned an IC50 of 139 µM.

`COc1ccc(/C=N/Nc2nc(-c3cccc([N+](=O)[O-])c3)cs2)cc1OC` [3e] registered an IC50 of 502 µM.

`O=[N+]([O-])c1cccc(-c2csc(N/N=C/c3ccccc3F)n2)c1` [3f] displayed a concentration for half-maximal inhibition (IC50) of 117 µM.

As to `O=[N+]([O-])c1cccc(-c2csc(N/N=C/c3cccc(Cl)c3)n2)c1` [3g], the IC50 came to 299 µM.

As for `O=[N+]([O-])c1cccc(-c2csc(N/N=C/c3ccccc3Br)n2)c1` [3h], the midpoint of inhibition, the IC50, lay at 342 µM.

In turn, `O=[N+]([O-])c1cccc(-c2csc(N/N=C/c3cccc(Br)c3)n2)c1` [3i] gave a half-maximal inhibitory concentration (IC50) of 413 µM.

For `Cc1ccc(/C=N/Nc2nc(-c3ccc(Cl)cc3)cs2)cc1` [3j], the IC50 was 603 µM.

In the case of `Cc1cc(C)cc(/C=N/Nc2nc(-c3ccc(Cl)cc3)cs2)c1` [3k], the IC50 is over 100 µM.

On to `COc1ccccc1/C=N/Nc1nc(-c2ccc(Cl)cc2)cs1` [3l], for which the IC50 was over 100 µM.

With `COc1ccc(OC)c(/C=N/Nc2nc(-c3ccc(Cl)cc3)cs2)c1` [3m], the IC50 came out at 216 µM.

Regarding `COc1ccc(/C=N/Nc2nc(-c3ccc(Cl)cc3)cs2)cc1OC` [3n], the IC50 was 248 µM.

As for `Fc1ccccc1/C=N/Nc1nc(-c2ccc(Cl)cc2)cs1` [3o], the IC50 is over 100 µM.

`Clc1ccc(-c2csc(N/N=C/c3cccc(Cl)c3)n2)cc1` [3p] returned an IC50 of over 100 µM.

`Clc1ccc(-c2csc(N/N=C/c3ccccc3Br)n2)cc1` [3q] came in with an IC50 of over 100 µM.

`Clc1ccc(-c2csc(N/N=C/c3cccc(Br)c3)n2)cc1` [3r] yielded an IC50 of over 100 µM.

The assay is the same for the next values; noted with them: IC50 (µM), DENV protease inhibitory activity, 5 µM substrate, 10 nM NS2b-NS3pro, compounds at 1, 10 and 100 µM, 1 h at RT; compounds 3ao–3av.
In the case of `C/C(=N\Nc1nc(-c2ccccc2)cs1)c1ccc(O)cc1` [3ao], the IC50 was determined as 114 µM.

Regarding `C/C(=N\Nc1nc(-c2ccc(C)cc2)cs1)c1ccc(O)cc1` [3ap], the IC50 was 56 µM.

For `C/C(=N\Nc1nc(-c2ccc(F)cc2)cs1)c1ccc(O)cc1` [3ar], the IC50 worked out at 250 µM.

For the compound `C/C(=N\Nc1nc(-c2ccccc2)cs1)c1cc(O)cc(O)c1` [3as], the IC50 was over 100 µM.

On to `C/C(=N\Nc1nc(-c2ccc(C)cc2)cs1)c1cc(O)cc(O)c1` [3at], for which the IC50 is 27.7 µM.

As for `C/C(=N\Nc1nc(-c2ccc(F)cc2)cs1)c1cc(O)cc(O)c1` [3av], inhibition was half-maximal at 37.1 µM (IC50).

The same assay, now with this note: IC50 (µM), DENV protease inhibitory activity, 5 µM substrate, 10 nM NS2b-NS3pro, compounds at 1, 10 and 100 µM, 1 h at RT; compounds 3s-3an.
The compound `COc1ccc(OC)c(/C(C)=N/Nc2nc(-c3cccc([N+](=O)[O-])c3)cs2)c1` [3aa] returned a 50% inhibitory concentration (IC50) of over 100 µM.

`COc1ccc(/C(C)=N/Nc2nc(-c3cccc([N+](=O)[O-])c3)cs2)cc1OC` [3ab] showed a half-maximal inhibitory concentration (IC50) of 31.4 µM.

With `C/C(=N\Nc1nc(-c2cccc([N+](=O)[O-])c2)cs1)c1ccc(Cl)cc1` [3ac], the IC50 is over 100 µM.

For the compound `C/C(=N\Nc1nc(-c2cccc([N+](=O)[O-])c2)cs1)c1ccc(F)cc1` [3ad], the IC50 was over 100 µM.

With `C/C(=N\Nc1nc(-c2ccc(Cl)cc2)cs1)c1ccc(C)cc1` [3ae], the IC50 is over 100 µM.

With `C/C(=N\Nc1nc(-c2ccc(Cl)cc2)cs1)c1ccc(O)cc1` [3af], the IC50 was found to be 144 µM.

`C/C(=N\Nc1nc(-c2ccc(Cl)cc2)cs1)c1cc(O)cc(O)c1` [3ag] yielded a 50% inhibitory concentration (IC50) of 92.3 µM.

Compound `COc1cccc(/C(C)=N/Nc2nc(-c3ccc(Cl)cc3)cs2)c1` [3ah] came in with an IC50 of 263 µM.

For `COc1ccc(/C(C)=N/Nc2nc(-c3ccc(Cl)cc3)cs2)cc1` [3ai], the IC50 came out at 399 µM.

The compound `COc1ccc(/C(C)=N/Nc2nc(-c3ccc(Cl)cc3)cs2)c(OC)c1` [3aj] came in with a 50% inhibitory concentration (IC50) of over 100 µM.

For `COc1ccc(OC)c(/C(C)=N/Nc2nc(-c3ccc(Cl)cc3)cs2)c1` [3ak], the IC50 worked out at 124 µM.

`COc1ccc(/C(C)=N/Nc2nc(-c3ccc(Cl)cc3)cs2)cc1OC` [3al] displayed a concentration for half-maximal inhibition (IC50) of 156 µM.

The compound `C/C(=N\Nc1nc(-c2ccc(Cl)cc2)cs1)c1ccc(F)cc1` [3an] yielded an IC50 of over 100 µM.

As to `C/C(=N\Nc1nc(-c2cccc([N+](=O)[O-])c2)cs1)c1ccc(C)cc1` [3t], the IC50 amounted to 113 µM.

Take `C/C(=N\Nc1nc(-c2cccc([N+](=O)[O-])c2)cs1)c1ccc(O)cc1` [3u]: the IC50 was determined as 28.7 µM.

For `C/C(=N\Nc1nc(-c2cccc([N+](=O)[O-])c2)cs1)c1cc(O)cc(O)c1` [3v], 27.4 µM corresponded to half-maximal inhibition (IC50).

Consider `COc1ccccc1/C(C)=N/Nc1nc(-c2cccc([N+](=O)[O-])c2)cs1` [3w], for which the IC50 was found to be 193 µM.

The compound `COc1cccc(/C(C)=N/Nc2nc(-c3cccc([N+](=O)[O-])c3)cs2)c1` [3x] displayed an IC50 of 387 µM.

`COc1ccc(/C(C)=N/Nc2nc(-c3cccc([N+](=O)[O-])c3)cs2)cc1` [3y] registered an IC50 of 328 µM.

In the case of `COc1ccc(/C(C)=N/Nc2nc(-c3cccc([N+](=O)[O-])c3)cs2)c(OC)c1` [3z], it took 171 µM to reach half-maximal inhibition (IC50).

The assay is the same for the next values; noted with them: protease IC50, -H replaced by -CH3 at R1.
Regarding `COc1ccc(/C(C)=N/Nc2nc(-c3cccc([N+](=O)[O-])c3)cs2)cc1OC` [3ab], the “fold improvement in potency in comparison with 3e” value was ~ 16 fold.

As usually defined, the IC50 is the concentration at which inhibition is half-maximal. A low value points to higher potency.
